{
  "source": "patent US7803795B2",
  "about": "“Phthalazine derivatives as parp inhibitors” (Janssen Pharmaceutica N.V., priority 2004, dated 2010)",
  "data": [
    {"molecular_target": "T1, PARP-1 enzyme (Homo sapiens, UniProt P09874)", "T1 construct": "made in house", "T1 sequence (P09874 whole entry)": "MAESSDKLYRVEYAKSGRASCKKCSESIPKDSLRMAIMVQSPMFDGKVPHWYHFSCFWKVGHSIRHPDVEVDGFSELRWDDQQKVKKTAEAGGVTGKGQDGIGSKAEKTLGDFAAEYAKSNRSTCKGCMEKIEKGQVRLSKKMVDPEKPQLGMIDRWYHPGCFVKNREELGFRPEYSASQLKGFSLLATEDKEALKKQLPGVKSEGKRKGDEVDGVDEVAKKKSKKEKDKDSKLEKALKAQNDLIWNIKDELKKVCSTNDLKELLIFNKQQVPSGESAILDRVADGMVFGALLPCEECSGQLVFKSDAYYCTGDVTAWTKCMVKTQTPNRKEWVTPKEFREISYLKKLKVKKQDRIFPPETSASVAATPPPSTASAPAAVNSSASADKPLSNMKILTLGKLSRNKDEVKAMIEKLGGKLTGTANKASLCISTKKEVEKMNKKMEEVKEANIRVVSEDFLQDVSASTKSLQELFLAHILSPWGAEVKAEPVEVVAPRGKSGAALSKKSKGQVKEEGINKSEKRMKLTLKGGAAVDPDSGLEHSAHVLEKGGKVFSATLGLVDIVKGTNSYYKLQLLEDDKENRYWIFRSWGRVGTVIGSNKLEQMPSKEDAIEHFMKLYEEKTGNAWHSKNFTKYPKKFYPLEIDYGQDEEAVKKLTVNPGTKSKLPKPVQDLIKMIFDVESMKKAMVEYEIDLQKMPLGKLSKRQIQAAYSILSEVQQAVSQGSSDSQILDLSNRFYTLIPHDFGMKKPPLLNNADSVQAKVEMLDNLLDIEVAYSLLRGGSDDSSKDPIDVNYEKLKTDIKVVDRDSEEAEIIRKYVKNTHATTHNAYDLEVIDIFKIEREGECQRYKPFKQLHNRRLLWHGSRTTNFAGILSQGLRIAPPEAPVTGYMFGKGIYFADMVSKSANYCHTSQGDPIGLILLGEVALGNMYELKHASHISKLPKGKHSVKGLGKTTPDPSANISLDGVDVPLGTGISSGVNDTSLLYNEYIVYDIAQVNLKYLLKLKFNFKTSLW", "assay": "in vitro Scintillation Proximity Assay (SPA) for PARP-1 inhibitory activity", "assay_type": "biochemical", "conditions": "[3H]-NAD+, biotinylated histones, nicked DNA; dose-response 10^-5 M to 10^-8 M; read-out: in vitro SPA assay PARP-1 pIC50 (converted)", "protocol": "In vitro Scintillation Proximity Assay (SPA) for PARP-1 Inhibitory Activity\nCompounds of the present invention were tested in an in vitro assay based on SPA technology (proprietary to Amersham Pharmacia Biotech).\nIn principle, the assay relies upon the well established SPA technology for the detection of poly(ADP-ribosylation of biotinylated target proteins, i.e histones. This ribosylation is induced using nicked DNA activated PARP-1 enzyme and [^3H]-nicotinamide adenine dinucleotide ([^3H]-NAD^+) as ADP-ribosyl donor.\nAs inducer of PARP-1 enzyme activity, nicked DNA was prepared. For this, 25 mg of DNA (supplier: Sigma) was dissolved in 25 ml DNAse buffer (10 mM Tris-HCl, pH 7.4; 0.5 mg/ml Bovine Serum Albumine (BSA); 5 mM MgCl2.6H2O and 1 mM KCl) to which 50 Al DNAse solution (1 mg/ml in 0.15 M NaCl) was added. After an incubation of 90 min. at 37° C., the reaction was terminated by adding 1.45 g NaCl, followed by a further incubation at 58° C. for 15 min. The reaction mixture was cooled on ice and dialysed at 4° C. for respectively 1.5 and 2 hours against 1.51 of 0.2 M KCl, and twice against 1.51 of 0.01 M KCl for 1.5 and 2 h respectively. The mixture was aliquoted and stored at −20° C. Histones (1 mg/ml, type II-A, supplier: Sigma) were biotinylated using the biotinylation kit of Amersham and stored aliquoted at −20° C. A stock solution of 100 mg/ml SPA poly(vinyl toluene) (PVT) beads (supplier: Amersham) was made in PBS. A stock solution of [^3H]-NAD^+ was made by adding 120 μl of [^3H]-NAD^+ (0.1 mCi/ml, supplier: NEN) to 6 ml incubation buffer (50 mM Tris/HCl, pH 8; 0.2 mM DTT; 4 mM MgCl2). A solution of 4 mM NAD^+ (supplier: Roche) was made in incubation buffer (from a 100 mM stock solution in water stored at −20° C.). The PARP-1 enzyme was produced using art known techniques, i.e. cloning and expression of the protein starting from human liver cDNA. Information concerning the used protein sequence of the PARP-1 enzyme including literature references can be found in the Swiss-Prot database under primary accession number P09874. Biotinylated histones and PVT-SPA beads were mixed and pre-incubated for 30 min. at room temperature. PARP-1 enzyme (concentration was lot dependent) was mixed with the nicked DNA and the mixture was pre-incubated for 30 min. at 4° C. Equal parts of this histones/PVT-SPA beads solution and PARP-1 enzyme/DNA solution were mixed and 75 μl of this mixture together with 1 μl of compound in DMSO and 25 μl of [^3H]-NAD^+ was added per well into a 96-well microtiterplate. The final concentrations in the incubation mixture were 2 μg/ml for the biotinylated histones, 2 mg/ml for the PVT-SPA beads, 2 μg/ml for the nicked DNA and between 5-10 μg/ml for the PARP-1 enzyme. After incubation of the mixture for 15 min. at room temperature, the reaction was terminated by adding 100 μl of 4 mM NAD^+ in incubation buffer (final concentration 2 mM) and plates were mixed.\nThe beads were allowed to sediment for at least 15 min. and plates transferred to a TopCountNXT™ (Packard) for scintillation counting, values were expressed as counts per minute (cpm). For each experiment, controls (containing PARP-1 enzyme and DMSO without compound), a blank incubation (containing DMSO but no PARP-1 enzyme or compound) and samples (containing PARP-1 enzyme and compound dissolved in DMSO) were run in parallel. All compounds tested were dissolved and eventually further diluted in DMSO. […] In each test, the blank value was subtracted from both the control and the sample values. The control sample represented maximal PARP-1 enzyme activity. For each sample, the amount of cpm was expressed as a percentage of the mean cpm value of the controls. When appropriate, IC50-values (concentration of the drug, needed to reduce the PARP-1 enzyme activity to 50% of the control) were computed using linear interpolation between the experimental points just above and below the 50% level. […]", "units": {"IC50": "µM"}, "values": [
      {"smiles": "O=c1[nH]nc(NCC2CCCN(CCCC(c3ccc(F)cc3)c3ccc(F)cc3)C2)c2ccccc12", "note": "(centres unmarked) [Compound 49]", "IC50": 3.82},
      {"smiles": "CCOC(=O)N1CCN(c2nnc(Cl)c3ccccc23)CC1", "note": "[Compound 58]", "IC50": 10},
      {"smiles": "O=c1[nH]nc(NC2CCN(C/C=C/c3ccccc3)CC2)c2ccccc12", "note": "[Compound 65]", "IC50": 0.851},
      {"smiles": "O=c1[nH]nc(N[C@@H]2C[C@H]3CC[C@@H](C2)N3)c2ccccc12", "note": "[Compound 15]", "IC50": 0.139},
      {"smiles": "O=c1[nH]nc(NC2CCCNCC2)c2ccccc12", "note": "(centres unmarked) [Compound 34]", "IC50": 0.12},
      {"smiles": "COc1ccc(CCN2CCC(Nc3n[nH]c(=O)c4ccccc34)CC2)cc1", "note": "[Compound 63]", "IC50": 0.684},
      {"smiles": "O=c1[nH]nc(NC2CCN(C[C@@H](O)[C@@H]3CCc4ccccc4O3)CC2)c2ccccc12", "note": "(relative stereo) [Compound 27]", "IC50": 0.857},
      {"smiles": "Cc1nc2sccn2c(=O)c1CCN1CCN(c2nnc(C)c3ccccc23)CC1", "note": "[Compound 73]", "IC50": 1.9},
      {"smiles": "CCOC(=O)N1CCC(Nc2n[nH]c(=O)c3ccccc23)CC1", "note": "[Compound 56]", "IC50": 5.64},
      {"smiles": "O=c1[nH]nc(NC2CCCN(CCCC(c3ccc(F)cc3)c3ccc(F)cc3)CC2)c2ccccc12", "note": "(centres unmarked) [Compound 30]", "IC50": 0.442},
      {"smiles": "O=c1[nH]nc(N2CCN(CCCC(c3ccc(F)cc3)c3ccc(F)cc3)CC2)c2ccccc12", "note": "[Compound 52]", "IC50": 0.435},
      {"smiles": "O=c1[nH]nc(NCC2CCCN(Cc3ccccc3)C2)c2ccccc12", "note": "(centres unmarked) [Compound 44]", "IC50": 1.12},
      {"smiles": "Cc1nnc(N2CCN(CCn3c(=O)[nH]c4ccccc43)CC2)c2ccccc12", "note": "[Compound 71]", "IC50": 7.41},
      {"smiles": "O=c1[nH]nc(C2CCNCC2)c2ccccc12", "note": "[Compound 4]", "IC50": 0.251},
      {"smiles": "O=c1[nH]nc(C2CCN(Cc3ccccc3)CC2)c2ccccc12", "note": "[Compound 1]", "IC50": 0.284},
      {"smiles": "O=c1[nH]nc(NC2CCCN(Cc3ccccc3)C2)c2ccccc12", "note": "(centres unmarked) [Compound 53]", "IC50": 1.07},
      {"smiles": "Cc1nc2n(c(=O)c1CCN1CCN(c3nnc(C)c4ccccc34)CC1)CCCS2", "note": "[Compound 76]", "IC50": 3.63},
      {"smiles": "O=c1[nH]nc(C2CCN(C/C=C/c3ccccc3)CC2)c2ccccc12", "note": "[Compound 66]", "IC50": 0.767},
      {"smiles": "Clc1nnc(N2CCN(c3ccccc3)CC2)c2ccccc12", "note": "[Compound 77]", "IC50": 1.32},
      {"smiles": "O=c1[nH]nc(NC2CCN(Cc3ccccc3)C2)c2ccccc12", "note": "(centres unmarked) [Compound 51]", "IC50": 0.432},
      {"smiles": "CCOC(=O)N1CCCC(Nc2n[nH]c(=O)c3ccccc23)CC1", "note": "(centres unmarked) [Compound 50]", "IC50": 2.51},
      {"smiles": "Cc1nnc(N2CCN(CCCC(c3ccc(F)cc3)c3ccc(F)cc3)CC2)c2ccccc12", "note": "[Compound 29]", "IC50": 1.78},
      {"smiles": "Cc1nc2ccccn2c(=O)c1CCN1CCN(c2nnc(C)c3ccccc23)CC1", "note": "[Compound 72]", "IC50": 8.97},
      {"smiles": "O=c1[nH]nc(N2CCC(c3cccc(C(F)(F)F)c3)C2)c2ccccc12", "note": "(centres unmarked) [Compound 55]", "IC50": 1.65},
      {"smiles": "O=c1[nH]nc(C2CCN(CCCCOc3ccccc3)CC2)c2ccccc12", "note": "[Compound 68]", "IC50": 0.274},
      {"smiles": "O=c1[nH]nc(C2CCN(CCCC(c3ccc(F)cc3)c3ccc(F)cc3)CC2)c2ccccc12", "note": "[Compound 67]", "IC50": 0.303},
      {"smiles": "Clc1nnc(NC2CCN(CCCCOc3ccccc3)CC2)c2ccccc12", "note": "[Compound 59]", "IC50": 3.3},
      {"smiles": "CN(c1nc2ccccc2s1)C1CCN(c2nnc(Cl)c3ccccc23)CC1", "note": "[Compound 61]", "IC50": 1.29},
      {"smiles": "Clc1nnc(NC2CCN(Cc3ccccc3)C2)c2ccccc12", "note": "(centres unmarked) [Compound 12]", "IC50": 1.14},
      {"smiles": "CCOC(=O)N1[C@@H]2CC[C@H]1C[C@H](Nc1n[nH]c(=O)c3ccccc13)C2", "note": "[Compound 11]", "IC50": 0.0867},
      {"smiles": "O=c1[nH]nc(NC2CCN(CCCCOc3ccccc3)CC2)c2ccccc12", "note": "[Compound 46]", "IC50": 0.843},
      {"smiles": "CCOC(=O)N1[C@@H]2CC[C@H]1C[C@H](Nc1nnc(Cl)c3ccccc13)C2", "note": "[Compound 24]", "IC50": 0.973},
      {"smiles": "Cc1nc2scc(C)n2c(=O)c1CCN1CCN(c2nnc(C)c3ccccc23)CC1", "note": "[Compound 74]", "IC50": 3.21},
      {"smiles": "Cc1nc2n(c(=O)c1CCN1CCN(c3nnc(C)c4ccccc34)CC1)CCS2", "note": "[Compound 75]", "IC50": 4.24},
      {"smiles": "O=c1[nH]nc(C2CCN(CCCOc3ccc(F)cc3)CC2)c2ccccc12", "note": "[Compound 13]", "IC50": 0.0755},
      {"smiles": "Cc1nnc(N2CCN(CCn3c(=O)[nH]c4ccccc4c3=O)CC2)c2ccccc12", "note": "[Compound 70]", "IC50": 3.44},
      {"smiles": "O=c1[nH]nc(N[C@@H]2C[C@H]3CC[C@@H](C2)N3CCCC(c2ccc(F)cc2)c2ccc(F)cc2)c2ccccc12", "note": "[Compound 3]", "IC50": 0.43},
      {"smiles": "O=c1[nH]nc(C2CCN(c3ncccn3)CC2)c2ccccc12", "note": "[Compound 69]", "IC50": 2.15},
      {"smiles": "CCOC(=O)N1CCC(c2n[nH]c(=O)c3ccccc23)CC1", "note": "[Compound 25]", "IC50": 2.99},
      {"smiles": "CCOC(=O)N1CCC(Nc2n[nH]c(=O)c3ccccc23)C1", "note": "(centres unmarked) [Compound 48]", "IC50": 3.07},
      {"smiles": "Fc1ccc(C(CCCN2CCN(c3nnc(Cl)c4ccccc34)CC2)c2ccc(F)cc2)cc1", "note": "[Compound 57]", "IC50": 1.97}
    ]}
  ]
}
